The values below come from US11083732B2, “Use of negative modulators of GABA receptors containing alpha5 subunits as fast acting antidepressants” (University of Maryland, Baltimore, priority 2014, dated 2021).

The test system of experiment [1] is str. pyramidale of area CA1 and NAc shell. As to the kind of experiment: In vivo field potential recording of oscillatory activity. More on the design: species or system rat. As to the method: A1. A 60 min period of continuous recording of spontaneous field potential activity is made under dim illumination. Rats are then injected with either L-665,708 or vehicle, and placed back in the tube for an additional 60-90 min of recording. Discrete fast Fourier transforms are made on 60s-long recording segments for preparation of spectrograms. Oscillation power (area under the curve) is integrated for different frequency bandwidths for power spectral density plots (Θ=3-7 Hz; α=8-12 Hz; β=13-29 Hz; γ=30-80 Hz) (Buhl et al., 1998; Raver et al., 2013). Just as with ketamine (e.g. Kittleberger et al., 2012; Lazarewicz et al., 2010; Hinman et al., 2013), in specific embodiments increases in power are observed by pairwise comparison of spectra before and after drug injection. Initial studies are consistent with this consideration (FIG. 2).
Electrophysiology in vivo. Tungsten microelectrodes (tip impedances=0.5M,Ω) are implanted stereotaxically in str. pyramidale of area CA 1, layer II of the EC, layer V of the medial PFC, or the shell of the NAc and secured to the skull with cement. After implantation, rats will be habituated to stay still under light restraint (a metal pole connecting the headstage to a rigid arm) in a narrow tube. On-going electrical activity will be recorded in the absence of anesthesia. Field potentials will be analyzed using Spike2 software.

Experiment [2] relates to rats subjected to chronic restraint stress. As to the kind of experiment: Social interaction test (SIT) after chronic restraint stress (CRS). Particulars: 10 days CRS; L-655,708 0.7 mg/kg i.p.; 24 hrs post-injection; vs baseline. The class given is in vivo, rat. An excerpt:
MRK-016 rapidly reverses loss of sucrose preference and social interaction behaviors after chronic restraint stress (FIG. 9). […] This persisted for 7 days despite further stress exposure. and in the same animals after an additional week of CRS and 7 days after the injection of MRK-016.
Chronic restraint stress (CRS). Male Sprague Dawley rats (4-5 weeks-old; Harlan Laboratories) were placed in appropriately sized restraint tubes, highly restricting their movement for periods of four hours in a brightly lit lab, every day for ten days during the light phase of their diurnal cycle (Lim et al., 2012).
Social interaction test (SIT). As described previously (Berton et al., 2006), rats were placed in a plastic enclosure (82×82 cm) with a 5×5 grid of squares (16.4×16.4 cm) visible underneath the clear plastic flooring. A small translucent perforated plastic box (20×16 cm) was placed against the center of one wall of the arena. During the testing conditions white overhead fluorescent lighting was used to illuminate the arena. A video camera positioned 170 cm above the floor of the arena was used to track the movements of the rats during the experiment.
(§1) Each test consisted of a “target-absent” trial followed by a “target-present” trial. During testing, an individual test rat was placed in the center of the arena and, after 30s of adaptation, the rat's movements were recorded with the video camera for 2.5 minutes. […]
(§2) Results were quantified as the percentage of time spent in the “interaction zone” (the five grid squares immediately surrounding the plastic cage) as measured for both the “target-absent” and “target-present” trials. […]
Several hedonic behaviors in rodents are sensitive to chronic stress and are restored by chronic, but not acute, administration of SSRIs, providing one means to screen for potential antidepressant compounds. First, it was determined whether L-655,708 would rapidly (<24 hrs) restore normal hedonic behavior following chronic restraint stress (Watanabe et al., 1992; Lim et al., 2012), consistent with the rapid antidepressant-like actions of ketamine (Li et al., 2011). […]

The subject of experiment [3] is rats subjected to chronic unpredictable stress. As to the kind of experiment: Social interaction test (SIT) after chronic unpredictable stress (CUS). The format is in vivo, rat. As to the method:
Chronic unpredictable stress (CUS). Male Sprague-Dawley rats (4-5 weeks-old; Harlan Laboratories) were randomly divided into control and CUS groups. Rats in the CUS group were individually housed. CUS animals were treated with two mild stressors every day for 5-6 weeks during their light phase (Willner et al., 1987). The stressors were randomly cycled to enhance unpredictability. The stressors were: forced swim, in which rats were placed in a basin containing cold water for 5 minutes; strobe lighting, in otherwise total darkness for 30 minutes; restraint, during which rats were put into appropriately sized restraint tubes for 30 minutes; exposure to white noise for 30 minutes; and food or water deprivation for 14 hours spanning the dark phase.
Social interaction test (SIT). […]
as §1, §2

In another experiment the test system is unstressed rats. The experiment in a line: Sucrose preference and social interaction tests in unstressed rats. The format is in vivo, rat. Particulars: 24 hrs after injection. How it is done:
Sucrose preference test (SPT). Rats were given a choice between two bottles containing tap water or a 1% sucrose solution (Rygula et al., 2006). Testing was conducted overnight (16 hours), including the full duration of their dark phase. Animals were first trained with both bottles while group-housed. For subsequent tests, including during the baseline period, animals were individually housed. Sucrose preference was calculated as amount of the sucrose solution consumed as a percentage of the total amount of liquid consumed.
Social interaction test (SIT). As described previously (Berton et al., 2006), rats were placed in a plastic enclosure (82×82 cm) with a 5×5 grid of squares (16.4×16.4 cm) visible underneath the clear plastic flooring. A small translucent perforated plastic box (20×16 cm) was placed against the center of one wall of the arena. […]
as §1, §2

“Also recorded” adds a separate entry of the source.

`CCOC(=O)c1ncn2c1[C@@H]1CCCN1C(=O)c1cc(OC)ccc1-2` [L-655,708, ethyl (13aS)-7-methoxy-9-oxo-11, 12,13,13 a-terahydro-9H-imidazo[1,5-a]pyrrolo[2,1-c] [1,4]benzodiazepine-1-carboxylate]: the “persistence of increase in oscillatory activity” value in experiment [1] (CA1 and NAc shell) is recorded as “persisted for more than one hour”. Besides, the “oscillatory activity (theta and beta frequency bands)” value in experiment [1] (str. pyramidale of area CA1 and NAc shell, after injection) was “rapid increase”. Further, the social interaction ratio entry in experiment [2] is recorded as “not significantly different than baseline”. Moreover, in experiment [3] (CUS 4 weeks plus one week, L-655,708 0.7 mg/kg i.p. 24 hrs earlier), the “number of CUS rats in which social interaction was reversed” value is listed as 14 of 18. Also, the social interaction result in experiment [3] (CUS rats, single injection of L-655,708 0.7 mg/kg i.p. 24 hrs earlier) is recorded as “restores the behavior; also recorded: reversed to levels that were not significantly different than pre-stress baseline”. Besides, in the experiment on unstressed rats, the social interaction result is given as “no change” and the sucrose preference entry is given as “no change”.
